In patent US5118669A, “Peptides and intermediates therefor useful as antiallergic agents, vasodilators and immunoregulators” (Hitachi Chemical Co., Ltd., priority 1989, dated 1992):

Experiments:
TNF = assay: Productivity of humoral factors by lymphocytes: TNF; format: cell-based, human (healthy adult); settings: for TNF: cultivation for a week, control 2,020
Procedure: (§1) Mononuclear cells separated by the density centrifugal method from blood of a healthy adult drawn in the presence of heparin were suspended in an RPMI-1640 culture medium containing 10% by volume of FBS. The suspension was divided into culture tubes (Falcon 2054) each at a concentration of 1×10^6 cells/ml, to which the captioned peptides were respectively added. Cultivation was made in an incubator for a week. After completion of the cultivation, the culture was centrifuged (1,500 rpm, 10 min.), and the supernatant collected and assayed for humoral factors. Interleukin 1 (IL-1) and tumor-nectrotizing factors were measured, respectively by a IL-1 radioimmunoassay kit (manufactured by Amersham International) and a TNF radioimmunoassay kit (manufactured by Medgenix). Measurement of interleukin 6 (IL-6) was made by the enzyme immunoassay method (ELISA) using IL-6 antibody (manufactured by Genzyme). Results of the measurements are shown in Table 7 wherein figures represent mean value±standard error.

[1] = test system: intraperitoneal mast cells of the rats; assay: Inhibitory activity on histamine release from passively sensitized rat mast cells; format: cell-based
Procedure: Male Wistar rats weighing 300-350 g were passively sensitized, and intraperitoneal mast cells of the rats were employed for the test. Rat antiserum used in the passive sensitization was prepared in accordance with the method of Mota [Immunology, 7, p. 681 (1964)] and the method of Hamaoka [J. Immunology, 113, p. 958 (1974)]. Male Wistar rats (weighing 200-250 g) each were injected ovalbumin (10 mg/kg) in a volume of 5 ml/kg intramuscularly on both thighs and simultaneously 2×10^10 cells of killed Bordetella pertussis were intraperitoneally administered to immunize the animal. Blood was drawn from the animal under ether anesthesia via the abdominal aorta on day 12 of the initial sensitization,from which antiserum was separated. The antiserum was lyophilized and stored at -20° C. Titer of the antiserum was assayed by the 48-hour rat PCA reaction. […] The anti-albumin IgE serum of the rat was two fold diluted, and 1 ml of the diluted serum was intraperitoneally administered to sensitize the animal. The rat was killed by blooding 48 hours after the sensitization, and 15 ml of a phosphate buffered saline (NaCl 8 g, KCl 0.2 g, Na2 HPO4.12H2 O 2.88 g, KH2 PO4 0.2 g, EDTA.2Na 0.2 g and bovine serum albumin 1 g, dissolved in purified water to make 1 liter, pH 7.4 (called PBS(-) hereinbelow) was intraperitoneally injected. The rat was then given light abdominal massage for about 2 min. and subjected to laparotomy to collect cells in the abdominal cavity. The cell suspension was centrifuged (1,000 rpm, 10 min.) and then resuspended in PBS(-). The PBS(-) suspension was overlayered on gum arabic density (specific gravity 1.075) followed by centrifugal separation (2,500 rpm, 10 min.). Deposited cells were washed with PBS(-) and suspended in fresh PBS(+)[a solution in which the EDTA 2Na in PBS(-) is replaced by 0.1 g of CaCl2, called PBS(+)] and adjusted to 1×10^5 cells/ml. The cell suspension was divided into silicone-treated test tubes in a volume of 0.8 ml/tube, which were then preincubated at 37° C. for 10 min. In the cell suspension-containing test tube was placed 0.1 ml of a test solution from various solutions diluted with PBS(+) followed by incubation at 37° C. for 15 min. To the test tube was then added 0.1 ml of a mixed solution of ovalbumin antigen (final concentration 1 mg/ml) and phosphatidyl-L-serine (final concentration 100 μm/ml) followed by incubation for additional 15 min. to release histamine. For cromoglycate, one of the comparative drugs, the drug was added 30 sec. prior to the addition of the antigen, and incubation was then made for additional 15 min. The reaction was terminated by addition of 1 ml of ice-cooled PBS(+), and the reaction mixture was centrifuged at 2,500 rpm for 10 min. To 2 ml of the supernatant was added 1 ml of a 4% solution of perchloric acid, and the mixture was assayed for free histamine. For the assay of total histamine, a sample was prepared by placing 0.8 ml of a suspension of untreated mast cells in boiling water for 10 min. followed by addition of 4% perchloric acid.
Amount of histamine in the sample was assayed by fluorimetry, and percent histamine release (%) was calculated by the equation [formula]

IL-1 = assay: Productivity of humoral factors by lymphocytes: IL-1; format: cell-based, human (healthy adult); settings: for IL-1: cultivation for a week, control 7.1
Procedure: as §1

[2] = test system: thoracic aorta of male rabbits contracted with potassium chloride; assay: Vasodilating action on aortic spiral strip contracted with potassium chloride; parameters: species or system rabbit; settings: potassium chloride contraction
Procedure: (§2) The thoracic aorta of male rabbits weighing 2.5-3 kg was excised and aortic specimens of spiral strip 25-30 mm in length were prepared. […] The specimen was cumulatively administered with H-Asp-Gly-Lys-OH, H Ser-Asp-Gly-Lys-OH, or H-Asp-Ser-Asp-Gly-Lys-OH or H-Ala-Asp-Ser-Asp-Gly-Lys-OH, and relaxation reaction of the blood vessel was observed. As comparative drug were employed nitroprusside (sodium salt) and verapamil.

[3] = test system: thoracic aorta of male rabbits contracted with norepinephrine; assay: Vasodilating action on aortic spiral strip contracted with norepinephrine; parameters: species or system rabbit; settings: norepinephrine contraction
Procedure: as §2

IL-6 = assay: Productivity of humoral factors by lymphocytes: IL-6; format: cell-based, human (healthy adult); settings: for IL-6: cultivation for a week, control 270
Procedure: as §1

[4] = test system: lymphocytes (mononuclear cells from blood of a healthy adult); assay: Blast formation of lymphocytes stimulated with various lectins (3H-thymidine uptake); format: cell-based, human (healthy adult)
Procedure: Mononuclear cells were collected by the density centrifugal method from blood of a healthy adult drawn in the presence of heparin and suspended in an RPMI-1640 culture medium (manufactured by Gibco) containing 10% by volume of bovine fetus serum (called FBS, manufactured by Dainihon Seiyaku). The suspension, adjusted to a concentration of 1×10^6 cells/ml, was divided into a 96-well Falcon microplate (manufactured by Becton Dickinson) in a volume of 100 μl/well. Then, a lectin, 1 μg/ml of PHA (phytohemagglutinin), 10 μg/ml of Con-A (concanavalin A) or 15 μg/ml of PWM (pokeweed mitogen) and one of the captioned peptides at a predetermined concentration were added followed by addition of a 10% FBS containing RPMI-1640 medium to a final liquid volume of 200 μl. Cultivation was made in a 5% by volume CO2 incubator at 37° C. for 72 hours, and 24 hours before completion of the cultivation 5 μCi of ^3 H-thymidine was added. The cells were recovered by a cell harvester (manufactured by Bio-Lab), and uptake of the ^3 H-thymidine was measured by a scintillation counter. Results of the measurement are shown in Table 3-Table 6 wherein figures indicate mean count (cpm)±standard error.

What does the source list for H-Asp-Gly-Lys-OH [DGK]?
TNF (TNF; additive 10^-6 M): 4,730 pg/ml; TNF (TNF; additive 10^-8 M): 4,110 pg/ml; production of TNF (TNF; summary of Table 7): promote production; inhibitory activity on histamine release ([1]; at a concentration of 10^-5 M or higher, FIG. 5-7): clear inhibitory activity; potency of histamine release inhibition compared with H-Asp-Ser-Asp-Pro-Arg-OH ([1]; versus comparative drug H-Asp-Ser-Asp-Pro-Arg-OH): higher; potency of histamine release inhibition compared with cromoglycate ([1]; versus cromoglycate): nearly equal to or higher; IL-1 (IL-1; additive 10^-6 M): 9.5 fM/ml; IL-1 (IL-1; additive 10^-8 M): 7.1 fM/ml; production of IL-1 (IL-1; summary of Table 7): promote production; Percent relaxation ([2]; compound 10^-4 M): 11.2%; Percent relaxation ([2]; compound 10^-5 M): 5.6%; Percent relaxation ([2]; compound 10^-6 M): 0%; Percent relaxation ([2]; compound 10^-7 M): 0%; Percent relaxation ([2]; compound 10^-8 M): 0%; Percent relaxation ([3]; compound 10^-4 M): 40.3%; Percent relaxation ([3]; compound 10^-5 M): 9.3%; Percent relaxation ([3]; compound 10^-6 M): 6.6%; Percent relaxation ([3]; compound 10^-7 M): 0%; Percent relaxation ([3]; compound 10^-8 M): 0%; IL-6 (IL-6; additive 10^-6 M): 440 U/ml; IL-6 (IL-6; additive 10^-8 M): 400 U/ml; production of IL-6 (IL-6; summary of Table 7): promote production; Uptake of 3H-thymidine by lymphocytes ([4]; Con-A (10 μg/ml), peptide 10^-6 M, control 37,800): 16,700 cpm; Uptake of 3H-thymidine by lymphocytes ([4]; Con-A (10 μg/ml), peptide 10^-8 M, control 37,800): 20,000 cpm; Uptake of 3H-thymidine by lymphocytes ([4]; PHA (1 μg/ml), peptide 10^-6 M, control 69,600): 62,500 cpm; Uptake of 3H-thymidine by lymphocytes ([4]; PHA (1 μg/ml), peptide 10^-8 M, control 69,600): 62,700 cpm; Uptake of 3H-thymidine by lymphocytes ([4]; PWM (15 μg/ml), peptide 10^-6 M, control 13,600): 9,590 cpm; Uptake of 3H-thymidine by lymphocytes ([4]; PWM (15 μg/ml), peptide 10^-8 M, control 13,600): 11,500 cpm; uptake of 3H-thymine by the lymphocytes stimulated with a lectin ([4]; lectin-stimulated, particularly Con-A, summary of Tables 3-6): strongly inhibit; Uptake of 3H-thymidine by lymphocytes ([4]; mitogen None, peptide 10^-6 M, control 1,090): 925 cpm; Uptake of 3H-thymidine by lymphocytes ([4]; mitogen None, peptide 10^-8 M, control 1,090): 1,120 cpm; influence upon uptake of 3H-thymine by lymphocytes in the absence of a mitogen ([4]; no mitogen, summary of Tables 3-6): little influence
